Results published in ChEMBL document CHEMBL5241054, “Effective anti-aromatase therapy to battle against estrogen-mediated breast cancer: Comparative SAR/QSAR assessment on steroidal aromatase inhibitors” (Eur J Med Chem, 2020).

biological target: T1, Aromatase (Homo sapiens, UniProt P11511)
T1 sequence (P11511 whole entry): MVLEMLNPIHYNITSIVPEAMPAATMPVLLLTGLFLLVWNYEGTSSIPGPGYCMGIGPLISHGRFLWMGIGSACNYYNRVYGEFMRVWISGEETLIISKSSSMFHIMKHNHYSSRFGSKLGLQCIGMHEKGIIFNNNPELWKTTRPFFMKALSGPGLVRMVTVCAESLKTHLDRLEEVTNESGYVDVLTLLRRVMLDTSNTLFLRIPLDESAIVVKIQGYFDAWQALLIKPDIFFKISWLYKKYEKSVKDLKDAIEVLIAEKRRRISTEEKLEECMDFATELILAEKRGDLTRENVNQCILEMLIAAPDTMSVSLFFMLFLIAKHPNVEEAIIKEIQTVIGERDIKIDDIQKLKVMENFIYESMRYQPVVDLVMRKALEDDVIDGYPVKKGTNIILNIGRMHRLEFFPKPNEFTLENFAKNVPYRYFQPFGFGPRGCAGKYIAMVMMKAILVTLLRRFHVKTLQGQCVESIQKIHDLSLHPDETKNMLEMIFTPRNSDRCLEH

Point of comparison: `Cc1ccc(S(=O)(=O)N2[C@H]3[C@@H]4[C@H](CC[C@]5(C)C(=O)CC[C@@H]45)[C@@]4(C)CCC(=O)C=C4[C@H]32)cc1` (some centres not stated), IC50 92900 nM. Against it:
- C[C@]12CCCCC1=CC[C@@H]1[C@@H]2CC[C@]2(C)C(=O)CC[C@@H]12 — 140-fold lower, 681 nM
- C[C@]12C=CC(=O)C(Sc3ccccc3)=C1C=C[C@@H]1[C@@H]2CC[C@]2(C)C(=O)CC[C@@H]12 — 1400-fold lower, 65 nM
- CC1(C)C[C@@]2(C)C(=C(O)C1=O)C(=O)C[C@@H]1[C@@H]2CC[C@]2(C)C(=O)CC[C@@H]12 — 210-fold lower, 440 nM
- C[C@]12C=CC(=O)C(Sc3ccccc3)=C1CC[C@@H]1[C@@H]2CC[C@]2(C)C(=O)CC[C@@H]12 — 190-fold lower, 500 nM
- C[C@]12CCC(=O)C(F)=C1CC[C@@H]1[C@@H]2CC[C@]2(C)C(=O)CC[C@@H]12 — 190-fold lower, 480 nM
- C[C@]12CCC(=O)C(Sc3ccccc3)=C1C=C[C@@H]1[C@@H]2CC[C@]2(C)C(=O)CC[C@@H]12 — 3700-fold lower, 25 nM
- C[C@]12CCC(=O)C(O)=C1C=C[C@@H]1[C@@H]2CC[C@]2(C)C(=O)CC[C@@H]12 — 93-fold lower, 1000 nM
- C[C@]12CC[C@H]3[C@@H](CCC4=CC(=O)CC[C@@]43C(F)F)[C@@H]1CCC2=O — 23-fold lower, 4000 nM
- CC1(C)C[C@@]2(C)C(=CC1=O)C(=O)C[C@@H]1[C@@H]2CC[C@]2(C)C(=O)CC[C@@H]12 — 310-fold lower, 300 nM
- C[C@]12CCC(=O)C(Sc3ccccc3)=C1CC[C@@H]1[C@@H]2CC[C@]2(C)C(=O)CC[C@@H]12 — 520-fold lower, 180 nM
- C[C@]12CCC(=O)C(O)=C1C(=O)C[C@@H]1[C@@H]2CC[C@]2(C)C(=O)CC[C@@H]12 — 200-fold lower, 460 nM
- CC[C@]12CCC(=O)C=C1CC[C@@H]1[C@@H]2CC[C@]2(C)C(=O)CC[C@@H]12 — 310-fold lower, 300 nM
- C[C@]12CCC(=O)C=C1[C@H](O)C[C@@H]1[C@@H]2CC[C@]2(C)C(=O)CC[C@@H]12 — 8.4-fold lower, 11000 nM
- C[C@]12CCC(=O)C=C1[C@@H](O)C[C@@H]1[C@@H]2CC[C@]2(C)C(=O)CC[C@@H]12 — 6.2-fold lower, 15000 nM
- C[C@]12CC[C@H]3[C@@H](CCC4=CC(=O)CC[C@@]43CF)[C@@H]1CCC2=O — 31-fold lower, 3000 nM
- C[C@]12CC[C@H]3[C@@H](CCC4=CC(=O)CC[C@@]43CCCl)[C@@H]1CCC2=O — 12-fold lower, 8000 nM
- C[C@]12CC[C@H]3[C@@H](C=CC45OC4C(=O)CC[C@]35C)[C@@H]1CCC2=O (some centres not stated) — 6.1-fold lower, 15300 nM
- CCC1C[C@H]2[C@@H]3CC[C@H](O)[C@@]3(C)CC[C@@H]2[C@@]2(C)CCC(=O)C=C12 (some centres not stated) — 1800-fold lower, 52 nM
- CCCCC1C[C@H]2[C@@H]3CC[C@H](O)[C@@]3(C)CC[C@@H]2[C@@]2(C)CCC(=O)C=C12 (some centres not stated) — 1900-fold lower, 48 nM
- C[C@]12CC[C@H]3[C@@H](CCC4=CC(=O)CC[C@@]43CC#N)[C@@H]1CCC2=O — 36-fold lower, 2600 nM
- C[C@]12CC[C@@H]3C4CCC(=O)C(F)=C4CC[C@H]3[C@@H]1CCC2=O (some centres not stated) — 230-fold lower, 400 nM
- C[C@]12CC[C@H]3[C@@H](CCC4=C(O)C(=O)CC[C@@]43C(F)F)[C@@H]1CCC2=O — 37-fold lower, 2500 nM
- C[C@]12CCC(=O)C=C1[C@H](N=[N+]=[N-])C(O)[C@@H]1[C@@H]2CC[C@]2(C)C(=O)CC[C@@H]12 (some centres not stated) — 2-fold lower, 47000 nM
- C[C@]12C=C(O)C(=O)C=C1C(=O)C[C@@H]1[C@@H]2CC[C@]2(C)C(=O)CC[C@@H]12 — 17-fold lower, 5600 nM
- C[C@]12CCC(=O)C=C1C(N=[N+]=[N-])=C[C@@H]1[C@@H]2CC[C@]2(C)C(=O)CC[C@@H]12 — 20-fold lower, 4550 nM
- CCCCC1C[C@H]2[C@@H]3CC[C@H](O)[C@@]3(C)CC[C@@H]2[C@@]2(C)C=CC(=O)C=C12 (some centres not stated) — 1500-fold lower, 64 nM
- C[C@]12CCC(=O)C=C1[C@H](O)C(N=[N+]=[N-])[C@@H]1[C@@H]2CC[C@]2(C)C(=O)CC[C@@H]12 (some centres not stated) — 31-fold lower, 3030 nM
- C[C@]12CCC(=O)C=C1C1C([C@@H]3[C@@H]2CC[C@]2(C)C(=O)CC[C@@H]32)C1(F)F (some centres not stated) — 100-fold lower, 889 nM
- COC1=C2C(=O)C[C@@H]3[C@H](CC[C@]4(C)C(=O)CC[C@@H]34)[C@@]2(C)CCC1=O — 46-fold lower, 2000 nM
- COC1=C2C=C[C@@H]3[C@H](CC[C@]4(C)C(=O)CC[C@@H]34)[C@@]2(C)CCC1=O — 8.4-fold lower, 11000 nM
- C[C@]12CC[C@H]3[C@@H](CCC4=CC(=O)CC[C@@]43CC(F)F)[C@@H]1CCC2=O — 23-fold lower, 4000 nM
- CCOC1=C2C(=O)C[C@@H]3[C@H](CC[C@]4(C)C(=O)CC[C@@H]34)[C@@]2(C)CCC1=O — 21-fold lower, 4500 nM
- C[C@]12C[C@@H](F)C(=O)C=C1[C@H](F)C[C@@H]1[C@@H]2CC[C@]2(C)C(=O)CC[C@@H]12 — 93-fold lower, 1000 nM
- C[C@]12CCC(=O)C=C1[C@@H]1N[C@@H]1[C@@H]1[C@@H]2CC[C@]2(C)C(=O)CC[C@@H]12 — 1.9-fold lower, 49200 nM
- C[C@]12CC[C@H]3[C@@H](CCC4=CC(=O)C(O)C[C@@]43C(F)F)[C@@H]1CCC2=O (some centres not stated) — 24-fold lower, 3800 nM
- C[C@]12CC[C@H]3[C@@H](CC[C@]4(F)[C@@H](O)C(=O)CC[C@]34C)[C@@H]1CCC2=O — 32-fold lower, 2900 nM
- C[C@]12CCC(=O)C=C1C(=O)[C@@H](O)[C@@H]1[C@@H]2CC[C@]2(C)C(=O)CC[C@@H]12 — 8.4-fold lower, 11000 nM
- C[C@]12CC[C@H]3[C@@H](CCC4=CC(=O)CC[C@@]43C#N)[C@@H]1CCC2=O — 3.7-fold lower, 25000 nM
- C[C@]12CCC(=O)C=C1C1OC1[C@@H]1[C@@H]2CC[C@]2(C)C(=O)CC[C@@H]12 (some centres not stated) — 2.4-fold lower, 39000 nM
- C[C@]12CCC(=O)C=C1[C@H](Br)C[C@@H]1[C@@H]2CC[C@]2(C)C(=O)CC[C@@H]12 — 120-fold lower, 800 nM
- C[C@]12CC[C@H]3[C@@H](CCC4=CC(=O)CC[C@@]43CCF)[C@@H]1CCC2=O — 130-fold lower, 700 nM
- CC(=O)O[C@@H]1C(=O)C2=CC(=O)CC[C@]2(C)[C@H]2CC[C@]3(C)C(=O)CC[C@H]3[C@H]12 — 18-fold lower, 5300 nM
- COC1=C2C(=O)C[C@@H]3[C@H](CC[C@]4(C)C(=O)CC[C@@H]34)[C@@]2(C)CC(C)(C)C1=O — 49-fold lower, 1900 nM
- CC(=O)OC1=C2CC[C@@H]3[C@H](CC[C@]4(C)C(=O)CC[C@@H]34)[C@@]2(C)CCC1=O — 62-fold lower, 1500 nM
- CCC1C[C@H]2[C@@H]3CC[C@H](O)[C@@]3(C)CC[C@@H]2[C@@]2(C)C=CC(=O)C=C12 (some centres not stated) — 1500-fold lower, 61.9 nM
- CC(=O)OC1=C2C=C[C@@H]3[C@H](CC[C@]4(C)C(=O)CC[C@@H]34)[C@@]2(C)CCC1=O — 12-fold lower, 8000 nM
- C[C@]12C=CC(=O)C=C1[C@H](CCCCCc1ccccc1)C[C@@H]1[C@@H]2CC[C@]2(C)C(=O)CC[C@@H]12 — 930-fold lower, 100 nM
- C=C[C@]12CCC(=O)C=C1CC[C@@H]1[C@@H]2CC[C@]2(C)C(=O)CC[C@@H]12 — 930-fold lower, 100 nM
- C[C@]12CC[C@H]3[C@@H](CCC4=CC(=O)CC[C@@]43C(F)F)[C@@H]1CC[C@@H]2O — 220-fold lower, 420 nM
- COC1=C2CC[C@@H]3[C@H](CC[C@]4(C)C(=O)CC[C@@H]34)[C@@]2(C)CCC1=O — 13-fold lower, 7190 nM
- C=CC[C@]12CCC(=O)C=C1CC[C@@H]1[C@@H]2CC[C@]2(C)C(=O)CC[C@@H]12 — 52-fold lower, 1800 nM
- CCC[C@]12CCC(=O)C=C1CC[C@@H]1[C@@H]2CC[C@]2(C)C(=O)CC[C@@H]12 — within 1.5-fold, 100000 nM
- C[C@]12C=CC(=O)C=C1[C@H](CCc1ccccc1)C[C@@H]1[C@@H]2CC[C@]2(C)C(=O)CC[C@@H]12 — 160-fold lower, 579 nM
- CC1C[C@H]2[C@@H]3CC[C@H](O)[C@@]3(C)CC[C@@H]2[C@@]2(C)CCC(=O)C=C12 (some centres not stated) — 5200-fold lower, 18 nM
- C#C[C@]12CCC(=O)C=C1CC[C@@H]1[C@@H]2CC[C@]2(C)C(=O)CC[C@@H]12 — 93-fold lower, 1000 nM
- CC1C[C@H]2[C@@H]3CC[C@H](O)[C@@]3(C)CC[C@@H]2[C@@]2(C)C=CC(=O)C=C12 (some centres not stated) — 1400-fold lower, 67 nM
- CC(=O)OC1[C@@H]2[C@H](CC[C@]3(C)C(=O)CC[C@@H]23)[C@@]2(C)CCC(=O)C=C2[C@@H]1N=[N+]=[N-] (some centres not stated) — 230-fold lower, 400 nM
- Cc1ccc(S(=O)(=O)N2[C@@H]3[C@@H]4[C@H](CC[C@]5(C)C(=O)CC[C@@H]45)[C@@]4(C)CCC(=O)C=C4[C@@H]32)cc1 (some centres not stated) — 1.7-fold lower, 53800 nM
- CC(=O)N1[C@H]2[C@@H]3[C@H](CC[C@]4(C)C(=O)CC[C@@H]34)[C@@]3(C)CCC(=O)C=C3[C@H]21 — within 1.5-fold, 64600 nM
- C[C@]12CC[C@H]3[C@@H](CCC4=CC(=O)CC[C@@]43CCl)[C@@H]1CCC2=O — 66-fold lower, 1400 nM
- CC(=O)OC1C[C@@]2(C)C(=CC1=O)C(=O)C[C@@H]1[C@@H]2CC[C@]2(C)C(=O)CC[C@@H]12 (some centres not stated) — 3.9-fold lower, 24000 nM
- C[C@]12C=CC(=O)C=C1[C@H](CCCCc1ccccc1)C[C@@H]1[C@@H]2CC[C@]2(C)C(=O)CC[C@@H]12 — 200-fold lower, 470 nM
- C[C@]12C=CC(=O)C=C1[C@H](CCCc1ccccc1)C[C@@H]1[C@@H]2CC[C@]2(C)C(=O)CC[C@@H]12 — 130-fold lower, 700 nM
- CC(=O)O[C@H]1C2=CC(=O)CC[C@]2(C)[C@H]2CC[C@]3(C)C(=O)CC[C@H]3[C@@H]2C1N=[N+]=[N-] (some centres not stated) — 4-fold lower, 23100 nM
- C[C@]12C=CC(=O)C=C1[C@H](Cc1ccccc1)C[C@@H]1[C@@H]2CC[C@]2(C)C(=O)CC[C@@H]12 — 160-fold lower, 590 nM
- C[C@]12CC[C@H]3[C@@H](CC(=O)[C@]45O[C@H]4CCC[C@]35C)C1CCC2=O (some centres not stated) — 8.1-fold lower, 11500 nM
